Reference: PubChem BioAssay (NCI)
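Exposure lasted 48 hours, with cells grown in 96-well plates and compounds tested at five concentrations. Abbreviation: GI50, concentration required for 50% inhibition of growth. TGI: total growth inhibition.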

Legend:
Experiment in all cases: NCI-60 cell line screen, 48 h
SNB-75 CNS = system: SNB-75 CNS
HS 578T breast = system: HS 578T breast
K-562 leukemia = system: K-562 leukemia
OVCAR-4 ovarian = system: OVCAR-4 ovarian
MDA-N = system: MDA-N
SN12C renal = system: SN12C renal
HCC-2998 colon = system: HCC-2998 colon
SK-MEL-2 melanoma = system: SK-MEL-2 melanoma
LOX IMVI melanoma = system: LOX IMVI melanoma
OVCAR-5 ovarian = system: OVCAR-5 ovarian

Row | SMILES | TGI (SNB-75 CNS) | TGI (HS 578T breast) | TGI (K-562 leukemia) | TGI (OVCAR-4 ovarian) | TGI (MDA-N) | TGI (SN12C renal) | TGI (HCC-2998 colon) | TGI (SK-MEL-2 melanoma) | TGI (LOX IMVI melanoma) | TGI (OVCAR-5 ovarian) | GI50 (HS 578T breast) | GI50 (K-562 leukemia) | GI50 (OVCAR-4 ovarian) | GI50 (SN12C renal) | GI50 (SK-MEL-2 melanoma) | GI50 (LOX IMVI melanoma) | GI50 (OVCAR-5 ovarian) | GI50 (HCC-2998 colon)
1 | CC(C)C1CNC(=O)C2(C=NC(C(C)C)CNC(=O)C3(C=N1)CCCO3)CCCO2 (configuration not stated) | > 10 µM | > 10 µM | > 10 µM | > 10 µM | > 10 µM | > 10 µM | > 10 µM |  |  |  |  |  |  |  |  |  |  | 
2 | O=C(NCCN1CCCCC1)c1ccc(Br)cc1 | > 100 µM | > 100 µM | > 100 µM | > 100 µM | > 100 µM | > 100 µM | > 100 µM | > 100 µM | > 100 µM | > 100 µM |  |  |  |  |  |  |  | 
3 | O=[N+]([O-])c1ccc(SN=S=NSc2cccc(SN=S=NSc3ccc([N+](=O)[O-])cc3)c2)cc1 |  | > 100 µM | > 100 µM | > 100 µM | 98.8 µM | 29.2 µM | > 100 µM | 34.1 µM | 35.5 µM | 74.3 µM |  |  |  |  |  |  |  | 
4 | CCS(=O)C(=O)N(O)c1ccc(Cl)cc1 (configuration not stated) | > 100 µM | > 100 µM | 39.9 µM | > 100 µM | 41.4 µM | 43 µM | > 100 µM | 56.7 µM | 53.1 µM | > 100 µM |  |  |  |  |  |  |  | 
5 | CCCCOCCOCCOC1=CC(=O)c2c(O)ccc(O)c2C1=O |  | 6.5 µM | 6.25 µM | 3.4 µM | 0.329 µM | 3.22 µM | 3.25 µM | 3.52 µM | 3.39 µM |  |  |  |  |  |  |  |  | 
6 | CCOC(=O)N/N=C(/N)c1cccc(Br)c1 | > 100 µM | > 100 µM | > 100 µM | > 100 µM | > 100 µM | > 100 µM | > 100 µM | > 100 µM | > 100 µM | > 100 µM |  |  |  |  |  |  |  | 
7 | Clc1ccc(Cl)c(N=Nc2cc3c4c(c2)CCN4CCC3)c1 | > 10 µM | > 10 µM | > 10 µM | > 10 µM | > 10 µM | > 10 µM | > 10 µM | > 10 µM | > 10 µM |  |  |  |  |  |  |  |  | 
8 | CS(=O)(=O)N1CC(CCl)c2ccc(NO)cc21 (configuration not stated) | 32.3 µM | 60 µM | 8.58 µM | 40.7 µM | 32.4 µM | 32.6 µM | 28.5 µM | 41.3 µM | 29.4 µM | 40.5 µM |  |  |  |  |  |  |  | 
9 | COC1(CC[C@@H](C)COC2OC(CO)C(O)C(O)C2O)O[C@H]2C[C@H]3[C@@H]4CC=C5C[C@@H](OC6OC(CO)C(OC7OC(C)C(O)C(O)C7O)C(O)C6OC6OC(C)C(O)C(O)C6O)CC[C@]5(C)[C@H]4CC[C@]3(C)[C@H]2[C@@H]1C (some centres not stated) | 3.37 µM | 3.99 µM | 16 µM | 6.72 µM | 7.43 µM |  | 8.5 µM | 8.5 µM | 1.99 µM | 10.5 µM | 1.18 µM | 5.12 µM | 2.44 µM | 2.87 µM | 3.26 µM | 0.645 µM | 1.91 µM | 2.97 µM
10 | CCc1n[nH]c(=O)n1CCCCCCCCn1c(CC)n[nH]c1=O | > 100 µM | > 100 µM | > 100 µM | > 100 µM | > 100 µM | > 100 µM | > 100 µM | > 100 µM | > 100 µM | > 100 µM |  |  |  |  |  |  |  | 
11 | O=c1[nH]/c(=C/c2ccc3c(c2)OCO3)c(=O)[nH]/c1=C/c1ccc2c(c1)OCO2 | > 10 µM | > 10 µM | > 10 µM | > 10 µM | > 10 µM | > 10 µM | > 10 µM | > 10 µM | > 10 µM | > 10 µM |  |  |  |  |  |  |  | 
12 | COc1ccc(-n2c(CCC(=O)O)nc3c2C(=O)c2ccccc2C3=O)cc1 | > 100 µM | > 100 µM | > 100 µM | > 100 µM | > 100 µM | > 100 µM | > 100 µM | > 100 µM | > 100 µM | > 100 µM |  |  |  |  |  |  |  | 
13 | C=C1CC(C)(COc2ccc3c(C)c(Cl)c(=O)oc3c2)OC1=O (configuration not stated) | 7.95 µM | > 100 µM | 5.98 µM | 10.4 µM | 5.45 µM | 18.9 µM | 4.27 µM | 4.47 µM | 2.91 µM | 13.4 µM |  |  |  |  |  |  |  | 
14 | CC(CSC(=N)N)C(N)=O (configuration not stated) | > 100 µM | > 100 µM | > 100 µM | > 100 µM | > 100 µM | > 100 µM | > 100 µM | > 100 µM | > 100 µM | > 100 µM |  |  |  |  |  |  |  | 
15 | CCN(CC)CCCNc1c2c(Cl)cc(Cl)cc2nc2nc(=O)[nH]c(C)c12 |  | > 100 µM | > 100 µM | > 100 µM | 37.7 µM | > 100 µM | 51 µM | > 100 µM | 48.5 µM | 50.6 µM |  |  |  |  |  |  |  | 
16 | CC(C)(C)OC(=O)NC1CCCC1C(=O)C1=CCCC1 (configuration not stated) | > 100 µM | > 100 µM | > 100 µM | > 100 µM | > 100 µM | > 100 µM | > 100 µM | > 100 µM | > 100 µM | > 100 µM |  |  |  |  |  |  |  | 
17 | C[C@@H](CC(O)C(O)C(C)(C)O)C1CCC23CC12CCC1[C@@]2(C)CCC(O)C(C)(C)C2CC(OC2OC(CO)C(O)C(O)C2O)[C@]13C (some centres not stated) | > 10 µM | > 10 µM | > 10 µM | > 10 µM | > 10 µM | > 10 µM | > 10 µM | > 10 µM | > 10 µM | > 10 µM |  |  |  |  |  |  |  | 
18 | FC(F)(F)c1ccccc1C1SCC2=Nc3ccccc3CN21 (configuration not stated) | 36.5 µM | 27.4 µM | > 100 µM | 30.1 µM | > 100 µM | > 100 µM | 27.6 µM |  | 28.4 µM | 26.6 µM |  |  |  |  |  |  |  | 
19 | COc1ccc(C2c3cc4c(cc3OC(NNc3ccccc3)C2C)OCO4)cc1 (configuration not stated) | > 100 µM | > 100 µM | > 100 µM |  | > 100 µM | 50.8 µM | 4.79 µM | 98.1 µM | > 100 µM | > 100 µM |  |  |  |  |  |  |  | 
20 | COC(=O)C(CC(C)C)NC(=O)C(NC(=O)c1ccc(-c2ccc(Cl)cc2Cl)o1)C(C)C (configuration not stated) | > 100 µM | 60.8 µM | 53.1 µM | > 100 µM | > 100 µM | 39.2 µM | 31.7 µM | 63.2 µM | 30.9 µM | > 100 µM |  |  |  |  |  |  |  | 
